# Test results from ChEMBL document CHEMBL3351289, “4-Substituted quinazoline derivatives as novel EphA2 receptor tyrosine kinase inhibitors” (Bioorg Med Chem Lett, 2014).
# Columns and labels:
# [1] = biological target: T1, Ephrin type-A receptor 2 (Homo sapiens, UniProt P29317); experiment: Inhibition of EphA2 (unknown origin) at 10 uM pre-incubated with enzyme for 10 mins before adding peptide substrate and ATP using TK-substrate-biotin and SEB by time-resolved fluorescence resonance energy transfer assay
# T1 sequence (P29317 whole entry): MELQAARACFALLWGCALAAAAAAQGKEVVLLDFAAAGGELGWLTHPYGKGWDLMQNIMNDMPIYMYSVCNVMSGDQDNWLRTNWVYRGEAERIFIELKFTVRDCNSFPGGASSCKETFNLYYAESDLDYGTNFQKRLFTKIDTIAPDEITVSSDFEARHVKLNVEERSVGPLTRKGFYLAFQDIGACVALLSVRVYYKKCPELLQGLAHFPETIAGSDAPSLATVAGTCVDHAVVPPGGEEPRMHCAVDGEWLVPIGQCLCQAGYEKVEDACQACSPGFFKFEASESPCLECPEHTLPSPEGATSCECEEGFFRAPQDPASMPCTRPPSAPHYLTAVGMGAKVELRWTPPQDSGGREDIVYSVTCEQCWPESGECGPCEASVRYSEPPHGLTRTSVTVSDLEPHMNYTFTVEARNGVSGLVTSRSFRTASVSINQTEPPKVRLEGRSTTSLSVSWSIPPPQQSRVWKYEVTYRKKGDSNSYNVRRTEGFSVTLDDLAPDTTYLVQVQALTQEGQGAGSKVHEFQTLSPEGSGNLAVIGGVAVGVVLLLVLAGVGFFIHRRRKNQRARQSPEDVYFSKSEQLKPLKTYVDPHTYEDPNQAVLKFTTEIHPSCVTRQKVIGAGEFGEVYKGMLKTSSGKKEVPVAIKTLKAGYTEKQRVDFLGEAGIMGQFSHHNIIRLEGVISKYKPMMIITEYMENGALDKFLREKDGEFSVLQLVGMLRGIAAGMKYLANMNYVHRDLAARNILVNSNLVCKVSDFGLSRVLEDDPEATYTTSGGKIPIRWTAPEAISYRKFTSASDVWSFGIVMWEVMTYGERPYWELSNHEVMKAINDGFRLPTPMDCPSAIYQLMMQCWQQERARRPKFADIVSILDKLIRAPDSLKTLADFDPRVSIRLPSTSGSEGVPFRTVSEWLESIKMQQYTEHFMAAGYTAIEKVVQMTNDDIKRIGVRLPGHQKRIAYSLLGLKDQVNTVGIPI
# [2] = biological target: Platelet-derived growth factor receptor alpha (Homo sapiens) (UniProt P16234); experiment: Inhibition of PDGFRalpha (unknown origin) at 1 uM
# [3] = biological target: Epidermal growth factor receptor (Homo sapiens) (UniProt P00533); experiment: Inhibition of EGFR (unknown origin) at 1 uM
# Chain of Epidermal growth factor receptor (Homo sapiens) (P00533 whole entry): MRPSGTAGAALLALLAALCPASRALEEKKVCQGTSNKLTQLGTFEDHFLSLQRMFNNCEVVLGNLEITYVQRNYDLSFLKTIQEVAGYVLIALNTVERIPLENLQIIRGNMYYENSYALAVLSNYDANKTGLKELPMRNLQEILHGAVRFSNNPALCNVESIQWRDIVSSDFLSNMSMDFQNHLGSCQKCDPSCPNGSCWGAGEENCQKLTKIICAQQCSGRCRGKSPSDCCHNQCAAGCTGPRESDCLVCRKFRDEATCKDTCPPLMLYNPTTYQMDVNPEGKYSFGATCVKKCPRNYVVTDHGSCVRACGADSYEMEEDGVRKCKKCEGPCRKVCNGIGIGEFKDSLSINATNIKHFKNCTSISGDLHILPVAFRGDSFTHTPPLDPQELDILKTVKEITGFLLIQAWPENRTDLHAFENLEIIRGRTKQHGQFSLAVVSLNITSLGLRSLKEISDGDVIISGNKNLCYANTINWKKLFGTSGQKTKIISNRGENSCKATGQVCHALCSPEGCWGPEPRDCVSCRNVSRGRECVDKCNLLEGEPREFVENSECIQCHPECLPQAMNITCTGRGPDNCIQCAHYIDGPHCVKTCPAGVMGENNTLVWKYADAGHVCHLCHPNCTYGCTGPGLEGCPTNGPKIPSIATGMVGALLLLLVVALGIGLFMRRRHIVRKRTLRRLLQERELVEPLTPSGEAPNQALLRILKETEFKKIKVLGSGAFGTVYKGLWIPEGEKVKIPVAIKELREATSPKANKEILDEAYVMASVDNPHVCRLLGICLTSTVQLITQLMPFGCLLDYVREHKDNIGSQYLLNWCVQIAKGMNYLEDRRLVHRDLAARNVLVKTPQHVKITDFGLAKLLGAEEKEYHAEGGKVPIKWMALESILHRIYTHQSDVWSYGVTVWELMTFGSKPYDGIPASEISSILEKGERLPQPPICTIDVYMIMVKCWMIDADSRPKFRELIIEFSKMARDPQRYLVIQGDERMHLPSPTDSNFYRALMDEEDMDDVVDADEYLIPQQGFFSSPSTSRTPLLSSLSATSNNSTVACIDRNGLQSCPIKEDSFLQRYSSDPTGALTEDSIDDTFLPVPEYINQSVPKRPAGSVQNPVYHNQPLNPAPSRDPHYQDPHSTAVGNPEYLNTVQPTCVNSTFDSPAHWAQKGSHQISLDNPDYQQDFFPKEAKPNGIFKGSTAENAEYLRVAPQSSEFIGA
# [4] = biological target: T1, Ephrin type-A receptor 2; experiment: Inhibition of EphA2 (unknown origin) pre-incubated with enzyme for 10 mins before adding peptide substrate and ATP using TK-substrate-biotin and SEB by time-resolved fluorescence resonance energy transfer assay
# [5] = biological target: Vascular endothelial growth factor receptor 2 (Homo sapiens) (UniProt P35968); experiment: Inhibition of KDR (unknown origin) at 1 uM
# Chain of Vascular endothelial growth factor receptor 2 (Homo sapiens) (P35968 whole entry): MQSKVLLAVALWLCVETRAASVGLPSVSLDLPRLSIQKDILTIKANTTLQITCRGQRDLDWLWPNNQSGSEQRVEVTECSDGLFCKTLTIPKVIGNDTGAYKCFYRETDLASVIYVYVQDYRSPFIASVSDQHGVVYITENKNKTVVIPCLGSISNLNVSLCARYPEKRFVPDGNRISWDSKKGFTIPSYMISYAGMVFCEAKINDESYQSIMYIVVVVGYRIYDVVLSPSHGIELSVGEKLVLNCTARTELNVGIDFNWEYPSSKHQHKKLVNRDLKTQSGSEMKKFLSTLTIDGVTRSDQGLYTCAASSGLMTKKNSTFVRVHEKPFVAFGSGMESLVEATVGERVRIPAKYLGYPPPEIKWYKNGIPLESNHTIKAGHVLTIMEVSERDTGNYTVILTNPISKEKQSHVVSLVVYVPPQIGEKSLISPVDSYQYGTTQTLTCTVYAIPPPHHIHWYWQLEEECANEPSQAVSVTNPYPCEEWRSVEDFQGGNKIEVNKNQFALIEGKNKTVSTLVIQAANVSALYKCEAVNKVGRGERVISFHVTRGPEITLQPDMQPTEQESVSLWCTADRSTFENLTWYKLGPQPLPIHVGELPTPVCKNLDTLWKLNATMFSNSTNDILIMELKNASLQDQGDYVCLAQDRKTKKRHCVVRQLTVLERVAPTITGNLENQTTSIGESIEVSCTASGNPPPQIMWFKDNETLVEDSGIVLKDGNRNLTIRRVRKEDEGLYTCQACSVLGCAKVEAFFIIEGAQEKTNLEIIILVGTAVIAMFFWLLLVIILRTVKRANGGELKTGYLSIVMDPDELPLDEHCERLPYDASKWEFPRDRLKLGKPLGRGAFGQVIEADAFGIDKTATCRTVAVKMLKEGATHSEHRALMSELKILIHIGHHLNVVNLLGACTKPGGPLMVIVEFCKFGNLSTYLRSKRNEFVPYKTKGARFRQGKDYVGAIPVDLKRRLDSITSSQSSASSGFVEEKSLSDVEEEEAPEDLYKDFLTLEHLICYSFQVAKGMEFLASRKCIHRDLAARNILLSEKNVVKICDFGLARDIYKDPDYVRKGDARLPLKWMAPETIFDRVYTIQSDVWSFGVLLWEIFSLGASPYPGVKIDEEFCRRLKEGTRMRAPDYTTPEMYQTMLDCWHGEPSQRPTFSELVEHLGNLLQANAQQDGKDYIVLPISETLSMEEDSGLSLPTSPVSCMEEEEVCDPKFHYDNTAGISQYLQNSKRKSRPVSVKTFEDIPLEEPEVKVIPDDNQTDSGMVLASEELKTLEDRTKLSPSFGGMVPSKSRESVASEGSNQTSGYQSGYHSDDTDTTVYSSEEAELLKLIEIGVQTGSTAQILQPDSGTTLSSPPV
# [6] = biological target: Receptor tyrosine-protein kinase erbB-2 (Homo sapiens) (UniProt P04626); experiment: Inhibition of HER2 (unknown origin) at 1 uM
# [7] = biological target: T1, Ephrin type-A receptor 2; experiment: Inhibition of EphA2 (unknown origin) expressed in […] cells assessed as reduction in wound closure after 72 hrs by phase contrast microscopy based would healing assay; format: cell-based
# [8] = biological target: Mitogen-activated protein kinase 1 (Homo sapiens) (UniProt P28482); experiment: Inhibition of ERK2 (unknown origin) at 1 uM
# Chain of Mitogen-activated protein kinase 1 (Homo sapiens) (P28482 whole entry): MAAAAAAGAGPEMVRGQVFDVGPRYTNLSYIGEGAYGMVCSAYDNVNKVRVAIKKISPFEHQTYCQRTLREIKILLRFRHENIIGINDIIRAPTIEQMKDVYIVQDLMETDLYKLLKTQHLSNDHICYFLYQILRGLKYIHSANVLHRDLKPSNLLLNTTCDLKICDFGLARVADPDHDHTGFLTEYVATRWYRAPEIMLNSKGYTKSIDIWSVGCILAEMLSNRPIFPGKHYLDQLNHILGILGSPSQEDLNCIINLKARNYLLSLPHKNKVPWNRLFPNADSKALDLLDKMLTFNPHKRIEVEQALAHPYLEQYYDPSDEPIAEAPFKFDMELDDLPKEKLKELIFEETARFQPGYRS
# [9] = biological target: Mitogen-activated protein kinase 11 (Homo sapiens) (UniProt Q15759); experiment: Inhibition of p38beta (unknown origin) at 1 uM
# Chain of Mitogen-activated protein kinase 11 (Homo sapiens) (Q15759 whole entry): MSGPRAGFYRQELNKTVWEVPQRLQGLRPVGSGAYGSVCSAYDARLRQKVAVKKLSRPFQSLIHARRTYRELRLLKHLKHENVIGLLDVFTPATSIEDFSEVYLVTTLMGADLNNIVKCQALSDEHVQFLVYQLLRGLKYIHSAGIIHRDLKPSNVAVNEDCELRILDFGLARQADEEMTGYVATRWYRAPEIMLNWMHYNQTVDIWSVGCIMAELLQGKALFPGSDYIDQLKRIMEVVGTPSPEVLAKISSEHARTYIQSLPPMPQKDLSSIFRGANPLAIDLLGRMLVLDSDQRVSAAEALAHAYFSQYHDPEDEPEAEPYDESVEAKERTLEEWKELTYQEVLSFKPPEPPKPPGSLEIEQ
# [10] = biological target: Mitogen-activated protein kinase 8 (Homo sapiens) (UniProt P45983); experiment: Inhibition of JNK1 (unknown origin) at 1 uM
# [11] = biological target: Mitogen-activated protein kinase 10 (Homo sapiens) (UniProt P53779); experiment: Inhibition of JNK3 (unknown origin) at 1 uM
# [12] = biological target: Glycogen synthase kinase-3 beta (Homo sapiens) (UniProt P49841); experiment: Inhibition of GSK3beta (unknown origin) at 1 uM
# Chain of Glycogen synthase kinase-3 beta (Homo sapiens) (P49841 whole entry, looked up): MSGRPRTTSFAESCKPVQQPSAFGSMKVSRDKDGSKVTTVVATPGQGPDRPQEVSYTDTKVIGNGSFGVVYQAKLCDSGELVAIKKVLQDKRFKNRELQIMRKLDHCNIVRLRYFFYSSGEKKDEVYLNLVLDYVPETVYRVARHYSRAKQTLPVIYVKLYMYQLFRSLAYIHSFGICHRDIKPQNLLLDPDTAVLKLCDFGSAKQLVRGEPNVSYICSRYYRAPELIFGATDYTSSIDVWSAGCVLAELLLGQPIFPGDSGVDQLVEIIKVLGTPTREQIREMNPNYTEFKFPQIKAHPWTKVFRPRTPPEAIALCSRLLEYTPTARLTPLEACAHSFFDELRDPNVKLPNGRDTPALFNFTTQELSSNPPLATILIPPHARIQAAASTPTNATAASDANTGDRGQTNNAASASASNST
# [13] = biological target: Mitogen-activated protein kinase 14 (Homo sapiens) (UniProt Q16539); experiment: Inhibition of p38alpha (unknown origin) at 1 uM
# Chain of Mitogen-activated protein kinase 14 (Homo sapiens) (Q16539 whole entry): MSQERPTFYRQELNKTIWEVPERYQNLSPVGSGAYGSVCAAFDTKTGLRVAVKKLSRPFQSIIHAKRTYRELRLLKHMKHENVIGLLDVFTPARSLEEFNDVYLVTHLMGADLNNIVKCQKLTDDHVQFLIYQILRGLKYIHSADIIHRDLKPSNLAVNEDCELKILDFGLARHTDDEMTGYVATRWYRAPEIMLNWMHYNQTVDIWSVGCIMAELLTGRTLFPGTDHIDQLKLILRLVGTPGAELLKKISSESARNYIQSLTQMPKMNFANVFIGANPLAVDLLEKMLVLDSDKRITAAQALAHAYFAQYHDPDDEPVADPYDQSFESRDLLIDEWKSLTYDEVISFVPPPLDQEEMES
# [14] = biological target: Insulin receptor (Homo sapiens) (UniProt P06213); experiment: Inhibition of InsR (unknown origin) at 1 uM
# [15] = biological target: Insulin-like growth factor 1 receptor (Homo sapiens) (UniProt P08069); experiment: Inhibition of IGF1R (unknown origin) at 1 uM
SMILES,inhibition [1],inhibition [2],inhibition [3],IC50 [4],inhibition [5],inhibition [6],inhibition [7],inhibition [8],inhibition [9],inhibition [10],inhibition [11],inhibition [12],inhibition [13],inhibition [14],inhibition [15]
CCCc1ccc(Nc2ncnc3cc(OCC4CNCCO4)c(OC)cc23)cc1 (stereo not given),49%,–,–,–,–,–,–,–,–,–,–,–,–,–,–
COc1cc2c(Nc3ccc(Cl)cc3F)ncnc2cc1OCC1CNCCO1 (stereo not given),–,17%,100%,160 nM,76%,22%,Dose-dependent effect,0%,2%,0%,0%,11%,16%,15%,7%
